Results on 38 compounds are retold here after US8003649B2 (AstraZeneca AB, priority 2007, dated 2011).

Structures are written as SMILES. Bounds are passed on as bounds.

In the test the target is T1, Androgen Receptor (AR) (Homo sapiens, UniProt P10275, T878A).
T1 construct: cell based immuno-fluorescence assay using the LNCaP prostate epithelial cell line; endogenous in cells; host or cells: LNCaP clone FGC (ATCC CRL-1740)
T1 sequence (P10275 1-920 T878A): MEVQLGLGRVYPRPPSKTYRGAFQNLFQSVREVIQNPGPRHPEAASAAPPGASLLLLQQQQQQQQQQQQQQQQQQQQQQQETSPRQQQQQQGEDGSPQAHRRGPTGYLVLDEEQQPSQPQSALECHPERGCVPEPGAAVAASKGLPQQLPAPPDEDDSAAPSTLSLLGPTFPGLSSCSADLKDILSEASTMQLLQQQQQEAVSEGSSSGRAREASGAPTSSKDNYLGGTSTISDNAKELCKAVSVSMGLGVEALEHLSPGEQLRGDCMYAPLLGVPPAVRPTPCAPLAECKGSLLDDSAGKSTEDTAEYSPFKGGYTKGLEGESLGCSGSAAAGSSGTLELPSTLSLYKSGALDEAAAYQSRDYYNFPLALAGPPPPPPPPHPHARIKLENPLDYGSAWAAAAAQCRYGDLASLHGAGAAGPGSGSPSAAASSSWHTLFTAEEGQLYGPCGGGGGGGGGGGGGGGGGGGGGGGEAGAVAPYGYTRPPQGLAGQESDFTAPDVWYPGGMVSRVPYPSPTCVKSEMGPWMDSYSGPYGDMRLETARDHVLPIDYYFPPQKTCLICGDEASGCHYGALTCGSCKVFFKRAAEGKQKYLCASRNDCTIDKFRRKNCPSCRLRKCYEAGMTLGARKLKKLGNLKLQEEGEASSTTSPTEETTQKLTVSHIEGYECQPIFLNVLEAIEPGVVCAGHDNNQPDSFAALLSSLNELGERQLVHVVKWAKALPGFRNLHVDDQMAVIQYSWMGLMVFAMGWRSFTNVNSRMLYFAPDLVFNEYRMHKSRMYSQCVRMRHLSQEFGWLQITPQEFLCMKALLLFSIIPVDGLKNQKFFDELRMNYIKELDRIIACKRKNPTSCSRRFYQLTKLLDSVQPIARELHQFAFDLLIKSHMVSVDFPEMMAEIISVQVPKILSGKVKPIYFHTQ
Nature of the test: LNCaP Androgen Receptor Down-regulation Cell Assay (immunofluorescence end point). Format: cell-based. The note with it: LNCaP prostate carcinoma cells, compound incubation 20-22 hours, 50% reduction of the AR signal; read-out: Androgen Receptor Down-regulation Assay (a) IC50/μM. An outline of the steps:
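AR loss reported as IC50 from curve fits of fluorescence dose-response data, with AR immunostained and read by laser-scanning cytometry. Compound exposure was 20-22 h at 37° C in LNCaP cells grown in 5% charcoal-stripped FBS and plated overnight beforehand.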
Turning to `OC1(c2ccc(Cl)nc2)CCN(c2ccc3nnc(C(F)(F)F)n3n2)CC1` [Example 323, 4-(6-chloropyridin-3-yl)-1-[3-(trifluoromethyl)[1,2,4]triazolo[4,3-b]pyridazin-6-yl]piperidin-4-ol], the DC50 is greater than 8.1 µM. `CCNC(=O)c1ccc(C2CCN(c3ccc4nnc(C(F)(F)F)n4n3)CC2)cc1` [Example 637]: the DC50 amounted to 1.8 µM. `FC(F)(F)c1nnc2ccc(N3CCC(Oc4ccc(OCCN5CCCC5)cc4)CC3)nn12` [Example 431]: the DC50 is 1.5 µM. Turning to `CN(C)C(=O)c1ccc(C2CCN(c3ccc4nnc(C(F)(F)F)n4n3)CC2)cc1` [Example 634], the DC50 came to 1.1 µM.

Regarding `FC(F)(F)c1nnc2ccc(N3CCN(Cc4cncc(Cl)c4)CC3)nn12` [Example 770], the DC50 was determined as 6.3 µM.

As for `FC(F)(F)c1nnc2ccc(N3CCN(Cc4ccc(Oc5ccccc5)nc4)CC3)nn12` [Example 144, 6-[4-[(6-phenoxypyridin-3-yl)methyl]piperazin-1-yl]-3-(trifluoromethyl)-[1,2,4]triazolo[4,3-b]pyridazine], the DC50 was found to be 4.9 µM. In the case of `Fc1cc(CN2CCN(c3ccc4nnc(C(F)F)n4n3)CC2)cc(C(F)F)c1` [Example 784, 3-(difluoromethyl)-6-[4-[3-(difluoromethyl)-5-fluorobenzyl]piperazin-1-yl][1,2,4]triazolo[4,3-b]pyridazine] it was 2.2 µM. For `FC(F)(F)c1nnc2ccc(N3CCC(c4c[nH]c5ccccc45)CC3)nn12` [Example 507, 6-[4-(1H-indol-3-yl)piperidin-1-yl]-3-(trifluoromethyl)[1,2,4]triazolo[4,3-b]pyridazine], the DC50 came to 0.53 µM. Regarding `CC(c1ccccc1)N1CCN(c2ccc3nnc(C(F)(F)Cl)n3n2)CC1` (centres unmarked) [Example 350, 3-[chloro(difluoro)methyl]-6-[4-(1-Phenylethyl)piperazin-1-yl][1,2,4]triazolo[4,3-b]pyridazine], the DC50 came out at 0.74 µM.

With `CC(C)c1ccc(CN2CCN(c3ccc4nnc(C(F)(F)F)n4n3)CC2)cc1` [Example 130, 6-[4-[(4-propan-2-ylphenyl)methyl]piperazin-1-yl]-3-(trifluoromethyl)-[1,2,4]triazolo[4,3-b]pyridazine], the DC50 was 1.8 µM. Take `FC(F)(F)c1nnc2ccc(N3CCN(Cc4ccc(Cl)nc4)CC3)nn12` [Example 137, 6-[4-[(6-chloropyridin-3-yl)methyl]piperazin-1-yl]-3-(trifluoromethyl)-[1,2,4]triazolo[4,3-b]pyridazine]: the DC50 was 1.5 µM. On to `FC(F)(F)c1ccc(C2CCN(c3ccc4nnc(C(F)(F)Cl)n4n3)C2)cc1` (centres unmarked) [Example 335], for which the DC50 amounted to 1.5 µM. In the case of `O=C(CCCN1CCOCC1)Nc1ccc(C2CCN(c3ccc4nnc(C(F)(F)F)n4n3)CC2)cc1` [Example 668] it was 1.1 µM; in that of `FC(F)(F)c1nnc2ccc(N3CC4CN(Cc5ccc(Cl)cc5)CC4C3)nn12` (centres unmarked) [Example 204, 6-[2-[(4-chlorophenyl)methyl]-1,3,3a,4,6,6a-hexahydropyrrolo[3,4-c]pyrrol-5-yl]-3-(trifluoromethyl)-[1,2,4]triazolo[4,3-b]pyridazine], 1.5 µM. On to `FC(F)(F)c1ncccc1CN1CC2CN(c3ccc4nnc(C(F)(F)F)n4n3)CC2C1` (centres unmarked) [Example 805], for which the DC50 worked out at 1 µM. Consider `FC(F)(F)c1nnc2ccc(N3CCC(c4cccnc4)CC3)nn12` [Example 610, 6-(4-pyridin-3-ylpiperidin-1-yl)-3-(trifluoromethyl)[1,2,4]triazolo[4,3-b]pyridazine], for which the DC50 was 3.2 µM. For the compound `Cc1cc(COc2cccc(OC3CCN(c4ccc5nnc(C(F)(F)F)n5n4)CC3)c2)no1` [Example 446], the DC50 was determined as 0.7 µM.

As to `CC(C)(C)c1ccc(CN2CCN(c3ccc4nnc(C(F)(F)F)n4n3)CC2)cc1` [Example 122, 6-[4-[(4-tert-butylphenyl)methyl]piperazin-1-yl]-3-(trifluoromethyl)-[1,2,4]triazolo[4,3-b]pyridazine], the DC50 worked out at 4.3 µM. `Cn1nccc1CCOc1cccc(C2CCN(c3ccc4nnc(C(F)(F)F)n4n3)CC2)c1` [Example 682]: the DC50 is 0.58 µM. For the compound `Clc1nnc2ccc(N3CCN(C(c4ccccc4)c4ccccc4)CC3)nn12` [Example 8, 6-(4-benzhydrylpiperazin-1-yl)-3-chloro-[1,2,4]triazolo[4,3-b]pyridazine], the DC50 stood at 1.7 µM.

Consider `O=C(CN1CCN(c2ccc3nnc(C(F)(F)F)n3n2)CC1)N1CCCCC1` [Example 24, 1-piperidin-1-yl-2-[4-[3-(trifluoromethyl)-[1,2,4]triazolo[4,3-b]pyridazin-6-yl]piperazin-1-yl]ethanone], for which the DC50 is greater than 26 µM. Under `N#Cc1cc(F)c(CN2CCN(c3ccc4nnc(C(F)(F)F)n4n3)CC2)c(F)c1` [Example 380] stands 4.2 µM; under `CCS(=O)(=O)c1ccc(CN2CCN(c3ccc4nnc(C(F)(F)F)n4n3)CC2)cc1` [Example 135, 6-[4-[(4-ethylsulfonylphenyl)methyl]piperazin-1-yl]-3-(trifluoromethyl)-[1,2,4]triazolo[4,3-b]pyridazine], 4.9 µM; under `FC(F)(F)c1nnc2ccc(N3CCC(COCC4CC4)CC3)nn12` [Example 295], 3.4 µM. Consider `CN(CCO)C(=O)c1ccc(OC2CCN(c3ccc4nnc(C(F)(F)F)n4n3)CC2)cc1` [Example 412, N-(2-hydroxyethyl)-N-methyl-4-[[1-[3-(trifluoromethyl)-[1,2,4]triazolo[4,3-b]pyridazin-6-yl]piperidin-4-yl]oxy]benzamide], for which the DC50 was found to be 9.1 µM. On to `C[C@@H]1CN(c2ccc3nnc(C(F)(F)F)n3n2)[C@@H](C)CN1Cc1cccnc1` [Example 223, 6-[(2S,5R)-2,5-dimethyl-4-(pyridin-3-ylmethyl)piperazin-1-yl]-3-(trifluoromethyl)[1,2,4]triazolo[4,3-b]pyridazine], for which the DC50 worked out at 4.7 µM. Turning to `N#Cc1ccc2[nH]cc(CN3CCN(c4ccc5nnc(C(F)F)n5n4)CC3)c2c1` [Example 286], the DC50 was 8.5 µM. In the case of `FC(F)(F)c1nnc2ccc(N3CC[C@H](Oc4ccccn4)C3)nn12` [Example 589, 6-[(3S)-3-(pyridin-2-yloxy)pyrrolidin-1-yl]-3-(trifluoromethyl)[1,2,4]triazolo[4,3-b]pyridazine] it was 4.8 µM; in that of `COc1cccc(C(=O)N2CC3CN(c4ccc5nnc(C(F)(F)F)n5n4)CC3C2)c1` (centres unmarked) [Example 207, (3-methoxyphenyl)-[2-[3-(trifluoromethyl)-[1,2,4]triazolo[4,3-b]pyridazin-6-yl]-1,3,3a,4,6,6a-hexahydropyrrolo[3,4-c]pyrrol-5-yl]methanone], 7.6 µM. For the compound `CN(C)CCOc1ccc(C2CCN(c3ccc4nnc(C(F)(F)F)n4n3)CC2)cc1` [Example 730], the DC50 is 0.72 µM. In the case of `FC(F)(F)c1cccc(CN2CC3CN(c4ccc5nnc(C(F)(F)F)n5n4)CC3C2)c1` (centres unmarked) [Example 196, 3-(trifluoromethyl)-6-[2-[[3-(trifluoromethyl)phenyl]methyl]-1,3,3a,4,6,6a-hexahydropyrrolo[3,4-c]pyrrol-5-yl]-[1,2,4]triazolo[4,3-b]pyridazine] it was 1.5 µM; in that of `Cc1cc(NCC2CC[C@@H]3CN(c4ccc5nnc(C(F)(F)F)n5n4)CCN3C2)c2ccccc2n1` (stereo partly drawn) [Example 28, N-[[(9aR)-2-[3-(trifluoromethyl)-[1,2,4]triazolo[4,3-b]pyridazin-6-yl]-1,3,4,6,7,8,9,9a-octahydropyrido[1,6-a]pyrazin-7-yl]methyl]-2-methylquinolin-4-amine], 2.8 µM. As to `Cc1ccnc(OC2CCN(c3ccc4nnc(C(F)(F)F)n4n3)CC2)n1` [Example 622], the DC50 stood at 7.4 µM. Consider `COc1ccc(CN2CCN(c3ccc4nnc(C(F)(F)F)n4n3)CC2)c(F)c1` [Example 385], for which the DC50 turned out to be 2.1 µM.

Consider `N#Cc1ccc(CN2CCN(c3ccc4nnc(C(F)F)n4n3)CC2)cc1` [Example 237], for which the DC50 came to 5.3 µM. As to `N#Cc1ccc(-c2nc(N3CCN(c4ccc5nnc(C(F)(F)F)n5n4)CC3)no2)cc1` [Example 277], the DC50 amounted to 2 µM.

In the case of `Fc1cccc(OCC2CN(c3ccc4nnc(C(F)(F)F)n4n3)C2)c1` [Example 491], the DC50 was 7.2 µM.

On to `FC(F)c1nnc2ccc(N3CCN(Cc4c[nH]c5cccc(Cl)c45)CC3)nn12` [Example 289], for which the DC50 is 2.7 µM.
